Values joined by “and” are separate entries in the source; they are usually repeats but may differ in a detail not shown here. Equal values may be shown once. Toxic doses and inconclusive results are not listed.
System: CD2F1 mice, L1210 leukemia ip, survival T/C
Assay: NCI In Vivo Anticancer Drug Screen. Data for tumor model L1210 Leukemia (intraperitoneal) in CD2F1 (CDF1) mice
Conditions: higher = longer survival
Procedure, shortened: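 Transplantable tumor in mice; compound-treated vs vehicle-treated groups. Read-out = treated/control ratio of the measured endpoint.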

[1] = endpoint: mean survival time, dose: 100.0 mg/kg/injection, schedule: Q01DX001 (ip), vehicle: saline
[2] = endpoint: mean survival time, dose: 100.0 mg/kg/injection, schedule: Q01DX009 (ip), vehicle: saline with Tween-80
[3] = endpoint: mean survival time, dose: 200.0 mg/kg/injection, schedule: Q01DX009 (ip), vehicle: saline with Tween-80
[4] = endpoint: mean survival time, dose: 400.0 mg/kg/injection, schedule: Q01DX009 (ip), vehicle: saline with Tween-80
[5] = endpoint: mean survival time, dose: 25.0 mg/kg/injection, schedule: Q01DX009 (ip), vehicle: saline with Tween-80
[6] = endpoint: mean survival time, dose: 25.0 mg/kg/injection, schedule: Q04DX003 (ip), vehicle: saline with Tween-80
[7] = endpoint: mean survival time, dose: 50.0 mg/kg/injection, schedule: Q01DX009 (ip), vehicle: saline with Tween-80
[8] = endpoint: mean survival time, dose: 50.0 mg/kg/injection, schedule: Q04DX003 (ip), vehicle: saline with Tween-80
[9] = endpoint: mean survival time, dose: 100.0 mg/kg/injection, schedule: Q04DX003 (ip), vehicle: saline with Tween-80
[10] = endpoint: mean survival time, dose: 200.0 mg/kg/injection, schedule: Q01DX001 (ip), vehicle: saline
[11] = endpoint: mean survival time, dose: 400.0 mg/kg/injection, schedule: Q01DX001 (ip), vehicle: saline
[12] = endpoint: mean survival time, dose: 200.0 mg/kg/injection, schedule: Q04DX003 (ip), vehicle: saline with Tween-80
[13] = endpoint: mean survival time, dose: 400.0 mg/kg/injection, schedule: Q04DX003 (ip), vehicle: saline with Tween-80
[14] = endpoint: mean survival time, dose: 1.5 mg/kg/injection, schedule: Q01DX001 (ip), vehicle: water
[15] = endpoint: mean survival time, dose: 3.0 mg/kg/injection, schedule: Q01DX001 (ip), vehicle: water
[16] = endpoint: mean survival time, dose: 6.0 mg/kg/injection, schedule: Q01DX001 (ip), vehicle: water
[17] = endpoint: mean survival time, dose: 12.0 mg/kg/injection, schedule: Q01DX001 (ip), vehicle: water
[18] = endpoint: mean survival time, dose: 24.0 mg/kg/injection, schedule: Q01DX001 (ip), vehicle: water
[19] = endpoint: mean survival time, dose: 100.0 mg/kg/injection, schedule: Q04DX002 (ip), vehicle: saline with Tween-80
[20] = endpoint: mean survival time, dose: 400.0 mg/kg/injection, schedule: Q04DX002 (ip), vehicle: saline with Tween-80
[21] = endpoint: mean survival time, dose: 12.5 mg/kg/injection, schedule: Q01DX009 (ip), vehicle: saline with Tween-80
[22] = endpoint: mean survival time, dose: 0.78 mg/kg/injection, schedule: Q01DX009 (ip), vehicle: saline with Tween-80
[23] = endpoint: mean survival time, dose: 1.56 mg/kg/injection, schedule: Q01DX009 (ip), vehicle: saline with Tween-80

## CN(C)CCC(=O)c1ccco1
endpoint: mean survival time, dose: 25.0 mg/kg/injection, schedule: Q01DX001 (ip), vehicle: saline
  T/C: 104 % of control
endpoint: mean survival time, dose: 50.0 mg/kg/injection, schedule: Q01DX001 (ip), vehicle: saline
  T/C: 95 % of control
[1]
  T/C: 97 % of control and 103 % of control

## O=C1c2ccccc2C(=O)N1CNCCCNCN1C(=O)c2ccccc2C1=O
[2]
  T/C: 98 % of control
[3]
  T/C: 98 % of control
[4]
  T/C: 96 % of control

## N#CC(C#N)=Cc1ccc2c(c1)CCC2
[5]
  T/C: 93 % of control
[6]
  T/C: 100 % of control
[7]
  T/C: 96 % of control
[8]
  T/C: 90 % of control
[2]
  T/C: 94 % of control
[9]
  T/C: 95 % of control

## COc1cc2cccnc2c2[nH]cc(C(=O)O)c(=O)c12
[1]
  T/C: 107 % of control
[2]
  T/C: 97 % of control
[10]
  T/C: 100 % of control
[11]
  T/C: 97 % of control

## [O-]/[N+](=C\c1ccccc1)c1ccccc1
[9]
  T/C: 97 % of control
[12]
  T/C: 90 % of control

## OCc1ccc(Cl)cc1
[9]
  T/C: 96 % of control
[12]
  T/C: 97 % of control
[13]
  T/C: 100 % of control

## COc1ccc(CNC(C)(C#N)c2ccccc2)cc1OC (stereo unspecified)
[9]
  T/C: 107 % of control
[12]
  T/C: 93 % of control
[13]
  T/C: 98 % of control

## CCOC(=O)C1(C(=O)OCC)CCC(O)N1C(=O)c1cc2c(cc1[N+](=O)[O-])OCO2 (stereo unspecified)
endpoint: mean survival time, dose: 50.0 mg/kg/injection, schedule: Q01DX009 (ip), vehicle: Klucel (hydroxypropylcellulose) (HPC)
  T/C: 97 % of control
endpoint: mean survival time, dose: 100.0 mg/kg/injection, schedule: Q01DX009 (ip), vehicle: Klucel (hydroxypropylcellulose) (HPC)
  T/C: 101 % of control
endpoint: mean survival time, dose: 200.0 mg/kg/injection, schedule: Q01DX009 (ip), vehicle: Klucel (hydroxypropylcellulose) (HPC)
  T/C: 101 % of control

## CO[C@@]12[C@@H]3N[C@@H]3CN1C1=C(C(=O)C(Nc3ccc(S)cc3)=C(C)C1=O)[C@@H]2COC(N)=O
[14]
  T/C: 108 % of control
[15]
  T/C: 104 % of control
[16]
  T/C: 97 % of control
[17]
  T/C: 98 % of control
endpoint: mean survival time, dose: 16.7 mg/kg/injection, schedule: Q01DX001 (ip), vehicle: distilled water + Tween-80
  T/C: 92 % of control
endpoint: mean survival time, dose: 24.0 mg/kg/injection, schedule: Q01DX001 (ip), vehicle: distilled water + Tween-80
  T/C: 102 % of control
[18]
  T/C: 98 % of control
endpoint: mean survival time, dose: 34.2 mg/kg/injection, schedule: Q01DX001 (ip), vehicle: distilled water + Tween-80
  T/C: 104 % of control
endpoint: mean survival time, dose: 48.9 mg/kg/injection, schedule: Q01DX001 (ip), vehicle: distilled water + Tween-80
  T/C: 96 % of control

## O=C(Nc1ccccn1)C(O)C(O)C(O)C(O)CO (stereo unspecified)
endpoint: mean survival time, dose: 12.5 mg/kg/injection, schedule: Q04DX003 (ip), vehicle: saline with Tween-80
  T/C: 96 % of control
[6]
  T/C: 101 % of control
[8]
  T/C: 89 % of control

## Nc1ccc(CC(=O)Nc2ccc(S(=O)(=O)F)cc2)cc1
[1]
  T/C: 102 % of control
[10]
  T/C: 103 % of control
[11]
  T/C: 105 % of control

## CC1=Nc2ccccc2N=C(C)C1
endpoint: mean survival time, dose: 50.0 mg/kg/injection, schedule: Q01DX009 (ip), vehicle: acetone
  T/C: 101 % of control
endpoint: mean survival time, dose: 100.0 mg/kg/injection, schedule: Q01DX009 (ip), vehicle: acetone
  T/C: 98 % of control

## CSc1nc(SC)c2c3c(N)ncnc3n(C3OC(CO)C(O)C3O)c2n1 (stereo unspecified)
endpoint: mean survival time, dose: 12.5 mg/kg/injection, schedule: Q01DX005 (ip), vehicle: other
  T/C: 107 % of control
endpoint: mean survival time, dose: 25.0 mg/kg/injection, schedule: Q01DX005 (ip), vehicle: other
  T/C: 121 % of control
endpoint: mean survival time, dose: 100.0 mg/kg/injection, schedule: Q01DX005 (ip), vehicle: other
  T/C: 119 % of control
endpoint: mean survival time, dose: 250.0 mg/kg/injection, schedule: Q01DX005 (ip), vehicle: other
  T/C: 121 % of control

## c1ccc(Sc2cccc3ccccc23)cc1
[9]
  T/C: 102 % of control
[12]
  T/C: 93 % of control
[13]
  T/C: 91 % of control

## CCN(CC)CCN1Cc2ccccc2C1
[5]
  T/C: 102 % of control
[7]
  T/C: 94 % of control
[2]
  T/C: 96 % of control and 107 % of control

## C#CCNC1=C(C)C(=O)C2=C(C1=O)[C@H](COC(N)=O)[C@]1(O)[C@H]3[C@@H](CN21)N3C (stereo partly specified)
[14]
  T/C: 104 % of control
[15]
  T/C: 102 % of control
[16]
  T/C: 100 % of control
[17]
  T/C: 110 % of control
[18]
  T/C: 110 % of control

## COc1ccc(NC(=O)Oc2ccc(SC)c(C)c2)cc1
[5]
  T/C: 101 % of control
endpoint: mean survival time, dose: 25.0 mg/kg/injection, schedule: Q04DX002 (ip), vehicle: saline with Tween-80
  T/C: 100 % of control
[7]
  T/C: 95 % of control
endpoint: mean survival time, dose: 50.0 mg/kg/injection, schedule: Q04DX002 (ip), vehicle: saline with Tween-80
  T/C: 107 % of control
[2]
  T/C: 89 % of control
[19]
  T/C: 91 % of control and 104 % of control
[20]
  T/C: 91 % of control

## O=c1[nH]cc(F)c(=O)n1-c1ccco1
[9]
  T/C: 111 % of control
[12]
  T/C: 166 % of control

## [Cl][Pt+2]([Cl])([Cl])[Cl].[NH-]C1CCCCC1.[NH-]C1CCCCC1
[21]
  T/C: 96 % of control
[5]
  T/C: 91 % of control
[7]
  T/C: 100 % of control
[2]
  T/C: 89 % of control

## C=C1N(C)c2ccccc2C1(C)C
[22]
  T/C: 104 % of control
[23]
  T/C: 101 % of control
endpoint: mean survival time, dose: 3.12 mg/kg/injection, schedule: Q01DX009 (ip), vehicle: saline with Tween-80
  T/C: 97 % of control
endpoint: mean survival time, dose: 6.25 mg/kg/injection, schedule: Q01DX009 (ip), vehicle: saline with Tween-80
  T/C: 98 % of control
[21]
  T/C: 92 % of control and 100 % of control
[5]
  T/C: 94 % of control
[7]
  T/C: 94 % of control

## O=C(O)CCC(CCC(=O)O)(C(=O)O)C(=O)O
endpoint: median survival time, dose: 75.0 mg/kg/injection, schedule: Q01DX009 (ip), vehicle: saline
  T/C: 98 % of control
endpoint: median survival time, dose: 150.0 mg/kg/injection, schedule: Q01DX009 (ip), vehicle: saline
  T/C: 96 % of control
endpoint: median survival time, dose: 300.0 mg/kg/injection, schedule: Q01DX009 (ip), vehicle: saline
  T/C: 96 % of control

## CCN(CC)CCN(CC)C(=O)C(O)(c1ccccc1)c1ccccc1
endpoint: mean survival time, dose: 50.0 mg/kg/injection, schedule: Q01DX009 (ip), vehicle: saline
  T/C: 98 % of control
endpoint: mean survival time, dose: 100.0 mg/kg/injection, schedule: Q01DX009 (ip), vehicle: saline
  T/C: 95 % of control
endpoint: mean survival time, dose: 200.0 mg/kg/injection, schedule: Q01DX009 (ip), vehicle: saline
  T/C: 91 % of control

## O=C(COc1ccc(Cl)c(Cl)c1)NCCc1ccccn1
[2]
  T/C: 95 % of control
[3]
  T/C: 97 % of control
[4]
  T/C: 95 % of control

## O=C(O)CSc1nc(-c2ccccc2)c(-c2ccccc2)n1-c1ccccn1
endpoint: mean survival time, dose: 12.5 mg/kg/injection, schedule: Q01DX009 (ip), vehicle: water
  T/C: 96 % of control and 97 % of control
endpoint: mean survival time, dose: 25.0 mg/kg/injection, schedule: Q01DX009 (ip), vehicle: water
  T/C: 91 % of control and 100 % of control
endpoint: mean survival time, dose: 50.0 mg/kg/injection, schedule: Q01DX009 (ip), vehicle: water
  T/C: 96 % of control and 102 % of control
endpoint: mean survival time, dose: 100.0 mg/kg/injection, schedule: Q01DX009 (ip), vehicle: water
  T/C: 100 % of control and 102 % of control

## COC1CCC(/C=C(\C#N)C2CCC(C)CC2)CC1 (stereo unspecified)
[5]
  T/C: 93 % of control
[7]
  T/C: 91 % of control
[2]
  T/C: 90 % of control and 93 % of control
[4]
  T/C: 92 % of control

## CC12C(=O)OC(=O)C1(C)C1CCC2O1 (stereo unspecified)
endpoint: mean survival time, dose: 0.39 mg/kg/injection, schedule: Q01DX009 (ip), vehicle: saline with Tween-80
  T/C: 94 % of control
[22]
  T/C: 98 % of control
[23]
  T/C: 105 % of control
endpoint: mean survival time, dose: 1.56 mg/kg/injection, schedule: Q04DX002 (ip), vehicle: saline with Tween-80
  T/C: 92 % of control

## Cc1ncc(COP(=O)(O)O)c(C=NC(CCCCN)C(=O)O)c1O.O.[Cu] (stereo unspecified)
endpoint: mean survival time, dose: 12.5 mg/kg/injection, schedule: Q01DX001 (ip), vehicle: saline with Tween-80
  T/C: 98 % of control
endpoint: mean survival time, dose: 25.0 mg/kg/injection, schedule: Q01DX001 (ip), vehicle: saline with Tween-80
  T/C: 92 % of control
endpoint: mean survival time, dose: 50.0 mg/kg/injection, schedule: Q01DX001 (ip), vehicle: saline with Tween-80
  T/C: 98 % of control

## O=C(Nc1ccccc1[N+](=O)[O-])OCc1ccccc1
[19]
  T/C: 95 % of control
endpoint: mean survival time, dose: 200.0 mg/kg/injection, schedule: Q04DX002 (ip), vehicle: saline with Tween-80
  T/C: 91 % of control
[20]
  T/C: 91 % of control

— PubChem BioAssay AID256 (DTP/NCI, 2004)
